± gives the expanded uncertainty stated by the source.

The conditions of the series: 101.33 kPa, Liquid, Pycnometric method.

For orientation: mass density means mass per unit of volume. For the compound `CCn1cc[n+](C)c1.F[B-](F)(F)F` [1-ethyl-3-methylimidazolium tetrafluoroborate], the mass density (285 K) was found to be 1290 ± 7 kg/m3; the mass density (290 K) is 1286 ± 7 kg/m3; the mass density (295 K) worked out at 1282 ± 7 kg/m3; the mass density (300 K) amounted to 1279 ± 7 kg/m3; the mass density (305 K) was 1275 ± 7 kg/m3.

Source of the values: the NIST ThermoML archive (doi:10.1021/je700037z).
